Laboratory results from ChEMBL document CHEMBL3046898, “Synthesis and characterization of flurbiprofen hydrazide derivatives as potential anti-HCV, anticancer and antimicrobial agents” (2013).
Activity calls are given as the source filed them. No cut-off for these calls is given here.

Columns and labels:
Salmonella paratyphi [1] = experiment: Antibacterial activity against Salmonella paratyphi at 6.25 to 200 ug/ml after 24 hrs by microwell dilution method; assay type: functional, organism-based; settings: Salmonella enterica subsp. enterica serovar Paratyphi A
Pseudomonas aeruginosa [2] = experiment: Antibacterial activity against Pseudomonas aeruginosa at 6.25 to 200 ug/ml after 24 hrs by microwell dilution method; assay type: functional, organism-based
Nakaseomyces glabratus = experiment: Antifungal activity against Candida glabrata at 10 mg/ml after 48 hrs by disc diffusion method; assay type: functional, organism-based
Proteus vulgaris [3] = experiment: Antibacterial activity against Proteus vulgaris at 6.25 to 200 ug/ml after 24 hrs by microwell dilution method; assay type: functional, organism-based
Staphylococcus aureus [4] = experiment: Antibacterial activity against Staphylococcus aureus at 10 mg/ml after 24 hrs by disc diffusion method; assay type: functional
Micrococcus lylae [5] = experiment: Antibacterial activity against Micrococcus lylae at 6.25 to 200 ug/ml after 24 hrs by microwell dilution method; assay type: functional, organism-based
Staphylococcus aureus [6] = experiment: Antibacterial activity against Staphylococcus aureus at 6.25 to 200 ug/ml after 24 hrs by microwell dilution assay; assay type: functional, organism-based
Aspergillus = experiment: Antifungal activity against Aspergillus at 10 mg/ml after 72 hrs by disc diffusion method; assay type: functional, organism-based
Candida parapsilosis = experiment: Antifungal activity against Candida parapsilosis at 10 mg/ml after 48 hrs by disc diffusion method; assay type: functional, organism-based
Staphylococcus cohnii [7] = experiment: Antibacterial activity against Staphylococcus cohnii at 6.25 to 200 ug/ml after 24 hrs by microwell dilution assay; assay type: functional, organism-based
Micrococcus luteus [8] = experiment: Antibacterial activity against Micrococcus luteus at 10 mg/ml after 24 hrs by disc diffusion method; assay type: functional, organism-based
Escherichia coli [9] = experiment: Antibacterial activity against Escherichia coli at 10 mg/ml after 24 hrs by disc diffusion method; assay type: functional, organism-based
Klebsiella aerogenes [10] = experiment: Antibacterial activity against Enterobacter aerogenes at 10 mg/ml after 24 hrs by disc diffusion method; assay type: functional, organism-based
Kluyveromyces marxianus = experiment: Antifungal activity against Kluyveromyces marxianus at 10 mg/ml after 48 hrs by disc diffusion method; assay type: functional, organism-based
Escherichia coli [11] = experiment: Antibacterial activity against Escherichia coli at 6.25 to 200 ug/ml after 24 hrs by microwell dilution method; assay type: functional, organism-based
Pichia membranifaciens = experiment: Antifungal activity against Pichia membranifaciens at 10 mg/ml after 48 hrs by disc diffusion method; assay type: functional, organism-based
Photorhabdus luminescens [12] = experiment: Antibacterial activity against Photorhabdus luminescens at 6.25 to 200 ug/ml after 24 hrs by microwell dilution method; assay type: functional, organism-based
Proteus vulgaris [13] = experiment: Antibacterial activity against Proteus vulgaris at 10 mg/ml after 24 hrs by disc diffusion method; assay type: functional, organism-based
Micrococcus lylae [14] = experiment: Antibacterial activity against Micrococcus lylae at 10 mg/ml after 24 hrs by disc diffusion method; assay type: functional, organism-based
Pseudomonas aeruginosa [15] = experiment: Antibacterial activity against Pseudomonas aeruginosa at 10 mg/ml after 24 hrs by disc diffusion method; assay type: functional, organism-based
Micrococcus luteus [16] = experiment: Antibacterial activity against Micrococcus luteus at 6.25 to 200 ug/ml after 24 hrs by microwell dilution method; assay type: functional, organism-based
Candida tropicalis = experiment: Antifungal activity against Candida tropicalis at 10 mg/ml after 48 hrs by disc diffusion method; assay type: functional, organism-based
Hepacivirus hominis = experiment: Inhibition of HCV N-terminal His-tagged NS5B RNA dependent RNA polymerase expressed in Escherichia coli DH5alpha using poly rA/U12 as primer at 200 uM after 60 mins by liquid scintillation counting
Candida albicans = experiment: Antifungal activity against Candida albicans at 10 mg/ml after 48 hrs by disc diffusion method; assay type: functional, organism-based
[17] = test system: Acinetobacter radioresistens; experiment: Antibacterial activity against Acinetobacter radioresistens at 10 mg/ml after 24 hrs by disc diffusion method; assay type: functional, organism-based
Staphylococcus cohnii [18] = experiment: Antibacterial activity against Staphylococcus cohnii at 10 mg/ml after 24 hrs by disc diffusion method; assay type: functional
Salmonella paratyphi [19] = experiment: Antibacterial activity against Salmonella paratyphi at 10 mg/ml after 24 hrs by disc diffusion method; assay type: functional, organism-based; settings: Salmonella enterica subsp. enterica serovar Paratyphi A
[20] = test system: Acinetobacter radioresistens; experiment: Antibacterial activity against Acinetobacter radioresistens at 6.25 to 200 ug/ml after 24 hrs by microwell dilution method; assay type: functional, organism-based
Photorhabdus luminescens [21] = experiment: Antibacterial activity against Photorhabdus luminescens at 10 mg/ml after 24 hrs by disc diffusion method; assay type: functional, organism-based
Klebsiella aerogenes [22] = experiment: Antibacterial activity against Enterobacter aerogenes at 6.25 to 200 ug/ml after 24 hrs by microwell dilution method; assay type: functional, organism-based
[23] = test system: Schwanniomyces occidentalis; experiment: Antifungal activity against Schwanniomyces occidentalis at 10 mg/ml after 48 hrs by disc diffusion method; assay type: functional, organism-based

| SMILES | Activity (Salmonella paratyphi [1]) | Activity (Pseudomonas aeruginosa [2]) | Activity (Nakaseomyces glabratus) | Activity (Proteus vulgaris [3]) | Activity (Staphylococcus aureus [4]) | Activity (Micrococcus lylae [5]) | Activity (Staphylococcus aureus [6]) | Activity (Aspergillus) | Activity (Candida parapsilosis) | Activity (Staphylococcus cohnii [7]) | Activity (Micrococcus luteus [8]) | Activity (Escherichia coli [9]) | Activity (Klebsiella aerogenes [10]) | Activity (Kluyveromyces marxianus) | Activity (Escherichia coli [11]) | Activity (Pichia membranifaciens) | Activity (Photorhabdus luminescens [12]) | Activity (Proteus vulgaris [13]) | Activity (Micrococcus lylae [14]) | Activity (Pseudomonas aeruginosa [15]) | further results |
| --- | --- | --- | --- | --- | --- | --- | --- | --- | --- | --- | --- | --- | --- | --- | --- | --- | --- | --- | --- | --- | --- |
| CC(C(=O)NN1C(=O)CSC1c1ccccc1Cl)c1ccc(-c2ccccc2)c(F)c1 (configuration not stated) | inactive | inactive | inactive | inactive | inactive | inactive | inactive | inactive | inactive | inactive | inactive | inactive | inactive | inactive | inactive | inactive | inactive | inactive | inactive | inactive | Activity (Micrococcus luteus [16]): inactive; Activity (Candida tropicalis): inactive; inhibition (Hepacivirus hominis): 70%; Activity (Candida albicans): inactive; Activity [17]: inactive; Activity (Staphylococcus cohnii [18]): inactive; Activity (Salmonella paratyphi [19]): inactive; Activity [20]: inactive; Activity (Photorhabdus luminescens [21]): inactive; Activity (Klebsiella aerogenes [22]): inactive; Activity [23]: inactive |
| CNC(=S)NNC(=O)C(C)c1ccc(-c2ccccc2)c(F)c1 (configuration not stated) | inactive | inactive | inactive | inactive | inactive | inactive | inactive | inactive | inactive | inactive | inactive | inactive | inactive | inactive | inactive | inactive | inactive | inactive | inactive | inactive | Activity (Micrococcus luteus [16]): inactive; Activity (Candida tropicalis): inactive; inhibition (Hepacivirus hominis): 8%; Activity (Candida albicans): inactive; Activity [17]: inactive; Activity (Staphylococcus cohnii [18]): inactive; Activity (Salmonella paratyphi [19]): inactive; Activity [20]: inactive; Activity (Photorhabdus luminescens [21]): inactive; Activity (Klebsiella aerogenes [22]): inactive; Activity [23]: inactive |
